Data: PubChem BioAssay AID256 (DTP/NCI, 2004)
Values joined by “and” are separate entries in the source; they are usually repeats but may differ in a detail not shown here. Equal entries are not always repeated. Toxic doses and inconclusive results are not listed.

System: CD2F1 mice, L1210 leukemia ip, survival T/C
Assay: NCI In Vivo Anticancer Drug Screen. Data for tumor model L1210 Leukemia (intraperitoneal) in CD2F1 (CDF1) mice
Details: higher = longer survival
Summary of the method: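 Antitumor effect is scored in animals hosting a serially transplanted tumor. Values compare compound-dosed animals against vehicle-only controls as a simple quotient.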

[1] = endpoint: mean survival time, dose: 400.0 mg/kg/injection, schedule: Q01DX009 (ip), vehicle: Klucel (hydroxypropylcellulose) (HPC)
[2] = endpoint: mean survival time, dose: 100.0 mg/kg/injection, schedule: Q04DX002 (ip), vehicle: saline with Tween-80
[3] = endpoint: mean survival time, dose: 100.0 mg/kg/injection, schedule: Q01DX009 (ip), vehicle: Klucel (hydroxypropylcellulose) (HPC)
[4] = endpoint: mean survival time, dose: 200.0 mg/kg/injection, schedule: Q01DX009 (ip), vehicle: Klucel (hydroxypropylcellulose) (HPC)
[5] = endpoint: mean survival time, dose: 50.0 mg/kg/injection, schedule: Q01DX009 (ip), vehicle: Klucel (hydroxypropylcellulose) (HPC)
[6] = endpoint: mean survival time, dose: 100.0 mg/kg/injection, schedule: Q04DX003 (ip), vehicle: saline with Tween-80
[7] = endpoint: mean survival time, dose: 200.0 mg/kg/injection, schedule: Q04DX003 (ip), vehicle: saline with Tween-80
[8] = endpoint: mean survival time, dose: 400.0 mg/kg/injection, schedule: Q04DX003 (ip), vehicle: saline with Tween-80

Compound: O=C1CN=C(c2ccccn2)c2cc(Br)ccc2N1
- T/C (endpoint: mean survival time, dose: 100.0 mg/kg/injection, schedule: Q04DX003 (ip), vehicle: Klucel (hydroxypropylcellulose) (HPC)): 95 % of control
- T/C (endpoint: mean survival time, dose: 119.0 mg/kg/injection, schedule: Q01DX009 (ip), vehicle: Klucel (hydroxypropylcellulose) (HPC)): 95 % of control
- T/C (endpoint: mean survival time, dose: 187.0 mg/kg/injection, schedule: Q01DX009 (ip), vehicle: Klucel (hydroxypropylcellulose) (HPC)): 100 % of control
- T/C (endpoint: mean survival time, dose: 200.0 mg/kg/injection, schedule: Q04DX003 (ip), vehicle: Klucel (hydroxypropylcellulose) (HPC)): 104 % of control
- T/C (endpoint: mean survival time, dose: 266.0 mg/kg/injection, schedule: Q01DX009 (ip), vehicle: Klucel (hydroxypropylcellulose) (HPC)): 95 % of control
- T/C [1]: 94 % of control
- T/C (endpoint: mean survival time, dose: 400.0 mg/kg/injection, schedule: Q04DX003 (ip), vehicle: Klucel (hydroxypropylcellulose) (HPC)): 104 % of control
- T/C (endpoint: mean survival time, dose: 600.0 mg/kg/injection, schedule: Q01DX009 (ip), vehicle: Klucel (hydroxypropylcellulose) (HPC)): 95 % of control

Compound: N#CC(c1ccc(N)cc1)C(CC(=O)c1ccccc1)c1ccccc1 (stereo not drawn)
- T/C [2]: 87 % of control and 95 % of control
- T/C (endpoint: mean survival time, dose: 200.0 mg/kg/injection, schedule: Q04DX002 (ip), vehicle: saline with Tween-80): 91 % of control
- T/C (endpoint: mean survival time, dose: 400.0 mg/kg/injection, schedule: Q04DX002 (ip), vehicle: saline with Tween-80): 87 % of control and 95 % of control

Compound: O=C(N/N=C/c1ccccc1O)c1ccccc1
- T/C (endpoint: mean survival time, dose: 100.0 mg/kg/injection, schedule: Q01DX001 (ip), vehicle: Klucel (hydroxypropylcellulose) (HPC)): 112 % of control
- T/C [3]: 94 % of control
- T/C (endpoint: mean survival time, dose: 200.0 mg/kg/injection, schedule: Q01DX001 (ip), vehicle: Klucel (hydroxypropylcellulose) (HPC)): 105 % of control
- T/C [4]: 104 % of control
- T/C (endpoint: mean survival time, dose: 400.0 mg/kg/injection, schedule: Q01DX001 (ip), vehicle: Klucel (hydroxypropylcellulose) (HPC)): 95 % of control
- T/C [1]: 102 % of control

Compound: CC1OC(C)(C)OC1C(=O)OCc1ccccc1 (stereo not drawn)
- T/C (endpoint: mean survival time, dose: 25.0 mg/kg/injection, schedule: Q01DX009 (ip), vehicle: Klucel (hydroxypropylcellulose) (HPC)): 96 % of control
- T/C [5]: 93 % of control
- T/C [3]: 99 % of control
- T/C [4]: 94 % of control
- T/C [1]: 99 % of control

Compound: O.O.O=C(O)C(O)C(O)C(OC1OC(CO)C(O)C(O)C1O)C(O)CO.O=C(O)C(O)C(O)C(OC1OC(CO)C(O)C(O)C1O)C(O)CO.[NH-]C1CCCCC1[NH-].[Pt+2] (stereo not drawn)
- T/C (endpoint: median survival time, dose: 3.12 mg/kg/injection, schedule: Q04DX003 (ip), vehicle: saline): 100 % of control
- T/C (endpoint: median survival time, dose: 6.25 mg/kg/injection, schedule: Q04DX003 (ip), vehicle: saline): 100 % of control
- T/C (endpoint: median survival time, dose: 12.5 mg/kg/injection, schedule: Q04DX003 (ip), vehicle: saline): 102 % of control
- T/C (endpoint: median survival time, dose: 25.0 mg/kg/injection, schedule: Q04DX003 (ip), vehicle: saline): 101 % of control
- T/C (endpoint: median survival time, dose: 50.0 mg/kg/injection, schedule: Q04DX003 (ip), vehicle: saline): 98 % of control
- T/C (endpoint: median survival time, dose: 100.0 mg/kg/injection, schedule: Q04DX003 (ip), vehicle: saline): 101 % of control
- T/C (endpoint: median survival time, dose: 200.0 mg/kg/injection, schedule: Q04DX003 (ip), vehicle: saline): 112 % of control

Compound: CCOP(OCC)SSCn1nc2ccc3ccccc3n2c1=O
- T/C (endpoint: mean survival time, dose: 12.5 mg/kg/injection, schedule: Q01DX009 (ip), vehicle: Klucel (hydroxypropylcellulose) (HPC)): 100 % of control
- T/C (endpoint: mean survival time, dose: 25.5 mg/kg/injection, schedule: Q01DX009 (ip), vehicle: Klucel (hydroxypropylcellulose) (HPC)): 95 % of control
- T/C [5]: 113 % of control

Compound: C1CC[N-]CC1.C1CC[N-]CC1.C1CC[N-]CC1.C1CC[N-]CC1.[Co].[N-]=C=S.[N-]=C=S
- T/C [2]: 123 % of control

Compound: CC([NH-])CC[NH-].O=S(=O)(O)O.[Pt+2] (stereo not drawn)
- T/C (endpoint: mean survival time, dose: 6.25 mg/kg/injection, schedule: Q04DX003 (ip), vehicle: saline): 158 % of control

Compound: CN(C)c1ccc2nc3ccc(=O)cc-3sc2c1
- T/C [3]: 98 % of control
- T/C [4]: 101 % of control
- T/C [1]: 103 % of control

Compound: CC(=O)Nc1ccccc1C
- T/C [6]: 97 % of control
- T/C [7]: 97 % of control
- T/C [8]: 99 % of control

Compound: O=C(Nc1nc2ccccc2s1)c1cc2ccccc2cc1O
- T/C [6]: 87 % of control
- T/C [7]: 98 % of control
- T/C [8]: 91 % of control
